Several values for one entry are separate records, joined by “and”; a condition that tells them apart may be missing. Identical values can stand only once. Like-named read-outs stand apart in the source and are kept apart here.

The test system of series [1] is CMK (an Acute Megakaryoblastic Leukemia (AMKL) cell line). Nature of the series: CellTiter-Glo cell proliferation, CMK cancer cell line. In kind it is cell-based. As for the experimental part: (§1) CellTiter-Glo® Luminescent cell viability assay (Promega) was used to assess cell survival following treatment with the compounds described herein. Cells were seeded into 384 well plates with the EL406 Combination Washer Dispenser (BioTek Instruments, Inc.), and the compounds were injected into the cells culture media with the JANUS Automated Workstation (PerkinElmer Inc.). Cells were treated with a series diluted inhibitors (20 to 0.04 μM) for 72 hours at 37° C. Luminescent measurement is performed using the 2104 Envision® Multilabel Reader (PerkinElmer Inc.). The cell lines employed include Ba/F3 (a murine interleukin-3 dependent pro-B cell line), NKL (a Natural Killer Cell Lymphoma (NKCL) cell line), CMK (an Acute Megakaryoblastic Leukemia (AMKL) cell line).
A general note: Cellular ATP, detected with luciferase, serves as a proxy for viable cell number.

In series [2] the test system is IL-4 signaling (JAK3 dependent). Nature of the series: Profiling on primary immune cells, IL-4 signaling. It counts as cell-based.
Series [3] is described as follows: Pharmacokinetics in mouse. To be noted: blood. It counts as in vivo.
The target in another series is T1, Ba/F3 JAK3 (Homo sapiens, UniProt P52333).
T1 construct: candidate: TEL (ETV6) N-terminal oligomerisation domain
T1 sequence (P52333 1-1124): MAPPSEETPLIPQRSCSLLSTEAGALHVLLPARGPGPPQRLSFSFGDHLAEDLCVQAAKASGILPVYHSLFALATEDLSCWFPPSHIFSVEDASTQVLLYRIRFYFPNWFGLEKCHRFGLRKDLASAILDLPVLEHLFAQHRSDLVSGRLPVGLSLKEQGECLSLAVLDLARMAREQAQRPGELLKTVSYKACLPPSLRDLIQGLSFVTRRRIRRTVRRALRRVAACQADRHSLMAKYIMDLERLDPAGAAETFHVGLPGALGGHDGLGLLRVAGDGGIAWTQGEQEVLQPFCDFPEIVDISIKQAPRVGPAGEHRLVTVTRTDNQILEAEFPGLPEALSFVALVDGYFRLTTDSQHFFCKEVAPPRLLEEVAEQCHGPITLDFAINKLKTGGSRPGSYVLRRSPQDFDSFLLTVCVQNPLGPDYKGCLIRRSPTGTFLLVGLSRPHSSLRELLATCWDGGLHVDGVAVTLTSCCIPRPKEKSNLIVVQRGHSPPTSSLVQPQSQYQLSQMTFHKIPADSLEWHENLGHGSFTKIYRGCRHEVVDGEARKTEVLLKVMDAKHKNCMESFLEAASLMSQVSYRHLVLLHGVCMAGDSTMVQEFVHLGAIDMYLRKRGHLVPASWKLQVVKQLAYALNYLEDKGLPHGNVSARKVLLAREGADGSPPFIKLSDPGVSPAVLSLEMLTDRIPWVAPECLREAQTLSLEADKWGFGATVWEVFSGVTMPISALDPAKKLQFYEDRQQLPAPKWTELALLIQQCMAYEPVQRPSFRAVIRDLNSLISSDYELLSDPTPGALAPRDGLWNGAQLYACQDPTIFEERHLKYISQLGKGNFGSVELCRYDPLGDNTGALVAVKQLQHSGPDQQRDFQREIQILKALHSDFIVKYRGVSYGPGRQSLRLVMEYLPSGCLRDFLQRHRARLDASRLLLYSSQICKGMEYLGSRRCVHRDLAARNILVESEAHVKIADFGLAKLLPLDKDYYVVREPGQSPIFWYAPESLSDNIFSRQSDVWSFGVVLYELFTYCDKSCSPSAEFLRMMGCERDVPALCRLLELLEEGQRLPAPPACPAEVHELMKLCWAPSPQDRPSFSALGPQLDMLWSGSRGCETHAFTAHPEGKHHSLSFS
Nature of the series: CellTiter-Glo cell proliferation, Ba/F3 JAK3. Conditions: 72 hours, read-out: Ba/F3 IC50 JAK3. It counts as cell-based, murine.

A short description of the next series: Aqueous solubility. In kind it is physicochemical. Conditions: aqueous medium; at 25° C.
The subject of series [4] is NKL (a Natural Killer Cell Lymphoma (NKCL) cell line). As to the kind of experiment: CellTiter-Glo cell proliferation, NKL cancer cell line. It counts as cell-based. The method, then:
as §1

The subject of series [5] is EGFR (T790M) dependent Ba/F3. As to the kind of experiment: Proliferation of EGFR (T790M) dependent Ba/F3. It counts as cell-based, murine. To be noted: Mus musculus, BaF3; at 200 nM. As for the experimental part:
as §1

On to `C=CC(=O)Nc1cccc(CNc2nc(Nc3ccc(N4CCN(C)CC4)cc3OC)ncc2Cl)c1` [Compound 2, N-(3-(((5-chloro-2-((2-methoxy-4-(4-methylpiperazin-1-yl)phenyl)amino)pyrimidin-4-yl)amino)methyl)phenyl)acrylamide], for which, in series [1] (72 hours, read-out: Cancer cell lines IC50 CMK), the IC50 stood at 8280 nM. For the same compound, the “anti-proliferative potency on AMKL cell line (in words)” value in series [1] (cell line with activating mutation A572V of JAK3) is “doesn't shown anti-proliferative potency”. Moreover, in series [2], the “effect on IL-4 signaling” value is on record as “blocks IL-4 signaling”. In series [3] (PO dose at 10 mg/kg), the Cmax came out at 294 ng/mL, the Tmax was determined as 2 h and the bioavailability was 23%. The Vd in series [3] (intravenous dose at 1 mg/kg, read-out: Vdss) is 1.2 L/kg. Moreover, the GI50 at Ba/F3 JAK3 (listed as compound 2) was determined as 60 nM. Also, the GI50 at Ba/F3 JAK3 is 60.4 nM and 62.6 nM. The compound further registered a solubility in the series “Aqueous solubility” greater than 250 µM. Moreover, the half-maximal inhibitory concentration (IC50) in series [4] (72 hours, read-out: Cancer cell lines IC50 NKL) was found to be 19.7 nM. The 50% effective concentration (EC50) in series [4] (IL-2 dependent NKL cell line, read-out: anti-proliferative potency EC50, NKL) came out at 20 nM. Also, the inhibition at 0.2 µM in series [5] was greater than 90%.

What is called IC50 is the concentration that gives 50% inhibition. Broadly, the Cmax is the maximum level reached in the sampled fluid or tissue. As a reminder, the Tmax is the time at which the peak concentration occurs. As usually defined, the bioavailability is dose-corrected exposure relative to a reference, in per cent. Broadly, the solubility is the dissolved amount per volume that the medium holds. For orientation: EC50 means the concentration giving half of the maximal effect. For orientation: inhibition means the percentage by which the read-out fell short of the control.

The record behind these values is patent publication US10017477B2, “Janus kinase inhibitors and uses thereof” (Dana-Farber Cancer Institute, Inc., priority 2014, dated 2018).
